From ChEMBL document CHEMBL1157243, “The sapogenin atroviolacegenin and its diglycoside atroviolaceoside from Allium atroviolaceum” (2006)
The source made the active and inactive calls. No cut-off for these calls is given here.

System: Ileum
Test: Antispasmodic activity in guinea pig ileum assessed as inhibition of histamine-induced tissue contraction at 10^-8 to 10^-5 M after 30 mins
Type: functional, Cavia porcellus
Settings: not given

Row | Compound | inhibition (INH)
1 | C[C@H](CC[C@]1(O)O[C@H]2C[C@H]3[C@@H]4CC=C5C[C@@H](O)C[C@@H](O[C@@H]6O[C@H](CO)[C@H](O)[C@H](O)[C@H]6O)[C@]5(C)[C@H]4CC[C@]3(C)[C@H]2[C@@H]1C)CO[C@@H]1O[C@H](C)[C@@H](O)[C@H](O)[C@@H]1O [TROPEOSIDE A2] | 50%
2 | C[C@H](CC[C@]1(O)O[C@H]2C[C@H]3[C@@H]4CC=C5C[C@@H](O)C[C@@H](O[C@@H]6OC[C@@H](O)[C@H](O)[C@H]6O)[C@]5(C)[C@H]4CC[C@]3(C)[C@H]2[C@@H]1C)CO[C@@H]1O[C@H](C)[C@@H](O)[C@H](O)[C@@H]1O [TROPEOSIDE B2] | 50%
3 | C[C@H](CC[C@@]1(O)O[C@H]2C[C@H]3[C@@H]4CC=C5C[C@@H](O)C[C@@H](O[C@@H]6O[C@H](CO)[C@H](O)[C@H](O)[C@H]6O)[C@]5(C)[C@H]4CC[C@]3(C)[C@H]2[C@@H]1C)CO[C@@H]1O[C@H](C)[C@@H](O)[C@H](O)[C@@H]1O [TROPEOSIDE A1] | 50%
4 | C[C@H]1[C@H]2[C@H](C[C@H]3[C@@H]4C[C@@H](O)[C@H]5C[C@@H](O[C@@H]6O[C@H](CO)[C@H](O[C@@H]7O[C@H](CO)[C@@H](O)[C@H](O)[C@H]7O)[C@H](O)[C@H]6O)[C@H](O)C[C@]5(C)[C@H]4CC[C@]23C)O[C@]12CC[C@@H](CO)CO2 [ATROVIOLACEOSIDE] | 0%
5 | C[C@H](CC[C@@]1(O)O[C@H]2C[C@H]3[C@@H]4CC=C5C[C@@H](O)C[C@@H](O[C@@H]6OC[C@@H](O)[C@H](O)[C@H]6O)[C@]5(C)[C@H]4CC[C@]3(C)[C@H]2[C@@H]1C)CO[C@@H]1O[C@H](C)[C@@H](O)[C@H](O)[C@@H]1O [TROPEOSIDE B1] | 50%

Same assay, conditions: Cavia porcellus

Row | Compound | Activity
6 | C[C@H]1[C@H]2[C@H](C[C@H]3[C@@H]4C[C@@H](O)[C@H]5C[C@@H](O)[C@H](O)C[C@]5(C)[C@H]4CC[C@]23C)O[C@]12CCC(CO)CO2 (single isomer, unassigned) | inactive
